From patent US6737383B1, “Herbicidal oxadiazolidines” (priority 1999, dated 2004)

Assays:
[1] = test system: wild oat; experiment: Test B pre/postemergence wild oat; format: in vivo, Avena fatua; settings: for Wild oats plant response rating (0 to 10 scale): 0 is no effect
Method in brief: (§1)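 Herbicidal effect was estimated by eye on a ten-point control scale after plants spent twelve to sixteen days in a greenhouse following soil or foliar treatment. Foliar sprays targeted plants at one to four leaves; all doses were formulated in a non-phytotoxic solvent with surfactant.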

[2] = test system: bedstraw; experiment: Test B pre/postemergence bedstraw; format: in vivo, Galium aparine; settings: for Bedstraw plant response rating (0 to 10 scale): 0 is no effect
Method in brief: as §1

[3] = test system: soybean; experiment: Test B pre/postemergence soybean; format: in vivo, Glycine max; settings: for Soybean plant response rating (0 to 10 scale): 0 is no effect
Method in brief: as §1

[4] = test system: bamyardgrass; experiment: Test B flood test barnyardgrass; format: in vivo, Echinochloa crus-galli; settings: for Plant response rating, Barnyardgrass: Postemergence (flood test)
Method in brief: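 Plants were grown to the 2-leaf stage before treatment with test chemical, then held in a greenhouse for twelve to sixteen days. Injury was visually rated against untreated controls on a 0–10 scale, where 0 is no effect and 10 is complete control.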

[5] = Postemergence, Rate 62 g/ha, scale 0 to 10, 0 is no effect, 10 is complete control
[6] = Postemergence, Rate 250 g/ha, scale 0 to 10, 0 no effect, 10 complete control
[7] = Preemergence, Rate 62 g/ha, scale 0 to 10 (0 no effect, 10 complete control)
[8] = Preemergence, Rate 125 g/ha, scale 0 to 10 (0 no effect, 10 complete control)
[9] = Preemergence, Rate 250 g/ha, scale of 0 to 10 where 0 is no effect and 10 is complete control
[10] = Preemergence, Rate 500 g/ha, scale 0 (no effect) to 10 (complete control)
[11] = Rate 125 g/ha, Postemergence, scale 0 to 10, 0 no effect, 10 complete control
[12] = Rate 500 g/ha, Postemergence, scale 0 to 10, 0 no effect, 10 complete control
[13] = Rate 125 g/ha, Postemergence section (flood test species), scale 0 to 10, 0 no effect, 10 complete control
[14] = Rate 500 g/ha, listed under Postemergence (flood test species), scale 0 to 10, 0 no effect, 10 complete control
[15] = flood test, listed under Postemergence, Rate 250 g/ha, scale 0 to 10, 0 no effect, 10 complete control
[16] = Postemergence, Rate 125 g/ha, scale of 0 to 10 where 0 is no effect and 10 is complete control
[17] = Preemergence, Rate 125 g/ha, 10 is complete control
[18] = Preemergence, Rate 500 g/ha, scale 0 to 10 (0 no effect, 10 complete control)
[19] = Rate 62 g/ha, Postemergence, scale of 0 to 10 where 0 is no effect and 10 is complete control
[20] = Rate 250 g/ha, Postemergence, scale 0 to 10, 0 is no effect, 10 is complete control
[21] = Postemergence, Rate 1000 g/ha, scale 0 to 10 (0 no effect, 10 complete control)
[22] = Preemergence, Rate 250 g/ha, scale 0 to 10, 0 is no effect, 10 is complete control
[23] = Rate 500 g/ha, Postemergence, scale 0 to 10
[24] = Rate 1000 g/ha, Preemergence, scale 0 to 10 (0 no effect, 10 complete control)
[25] = Postemergence (flood test species), Rate 125 g/ha, scale of 0 to 10 where 0 is no effect and 10 is complete control
[26] = Rate 250 g/ha, scale 0 to 10, 0 is no effect, 10 is complete control

SMILES: COc1cccc(C)c1-n1c(=O)on(C(=O)N(c2ccccc2)C(C)C)c1=O [Compound 73]
- Wild oats plant response rating [1, 5]: 0
- Wild oats plant response rating [1, 6]: 2
- Wild oats plant response rating [1, 7]: 0
- Plant response rating, Wild oats [1, 8]: 0
- Plant response rating, Wild oats [1, 9]: 0
- Wild oats plant response rating [1, 10]: 0
- Wild oats plant response rating [1, 11]: 0
- Wild oats plant response rating [1, 12]: 6
- Bedstraw plant response rating [2, 5]: 0
- Bedstraw plant response rating [2, 6]: 7
- Bedstraw plant response rating [2, 7]: 0
- Plant response rating, Bedstraw [2, 8]: 0
- Plant response rating, Bedstraw [2, 9]: 0
- Bedstraw plant response rating [2, 10]: 0
- Bedstraw plant response rating [2, 11]: 0
- Bedstraw plant response rating [2, 12]: 7
- Soybean plant response rating [3, 5]: 0
- Soybean plant response rating [3, 6]: 3
- Soybean plant response rating [3, 7]: 0
- Plant response rating, Soybean [3, 8]: 0
- Plant response rating, Soybean [3, 9]: 0
- Soybean plant response rating [3, 10]: 0
- Soybean plant response rating [3, 11]: 0
- Soybean plant response rating [3, 12]: 3
- Barnyardgrass plant response rating [4, 5]: 0
- Barnyardgrass plant response rating [4, 13]: 0
- Barnyardgrass plant response rating [4, 14]: 0
- Barnyardgrass plant response rating [4, 15]: 0

SMILES: Cc1nn(C)c(C)c1-n1c(=O)on(C(=O)N(c2ccc(F)cc2F)C(C)C)c1=O [Compound 76]
- Wild oats plant response rating [1, 5]: 0
- Wild oats plant response rating [1, 6]: 2
- Wild oats plant response rating [1, 7]: 0
- Plant response rating, Wild oats [1, 8]: 0
- Plant response rating, Wild oats [1, 9]: 4
- Wild oats plant response rating [1, 10]: 4
- Wild oats plant response rating [1, 11]: 0
- Wild oats plant response rating [1, 12]: 5
- Bedstraw plant response rating [2, 5]: 0
- Bedstraw plant response rating [2, 6]: 2
- Bedstraw plant response rating [2, 7]: 0
- Plant response rating, Bedstraw [2, 8]: 0
- Plant response rating, Bedstraw [2, 9]: 0
- Bedstraw plant response rating [2, 10]: 0
- Bedstraw plant response rating [2, 11]: 0
- Bedstraw plant response rating [2, 12]: 4
- Soybean plant response rating [3, 5]: 0
- Soybean plant response rating [3, 6]: 2
- Soybean plant response rating [3, 7]: 0
- Plant response rating, Soybean [3, 8]: 0
- Plant response rating, Soybean [3, 9]: 0
- Soybean plant response rating [3, 10]: 0
- Soybean plant response rating [3, 11]: 1
- Soybean plant response rating [3, 12]: 2
- Barnyardgrass plant response rating [4, 5]: 0
- Barnyardgrass plant response rating [4, 13]: 0
- Barnyardgrass plant response rating [4, 14]: 0
- Barnyardgrass plant response rating [4, 15]: 0

SMILES: CN(C(=O)n1oc(=O)n(Cc2cccs2)c1=O)c1ccccc1 [Compound 83]
- Wild oats plant response rating [1, 5]: 0
- Wild oats plant response rating [1, 6]: 0
- Wild oats plant response rating [1, 7]: 0
- Plant response rating, Wild oats [1, 8]: 0
- Plant response rating, Wild oats [1, 9]: 0
- Wild oats plant response rating [1, 10]: 0
- Wild oats plant response rating [1, 11]: 0
- Wild oats plant response rating [1, 12]: 0
- Bedstraw plant response rating [2, 5]: 0
- Bedstraw plant response rating [2, 6]: 0
- Bedstraw plant response rating [2, 7]: 0
- Plant response rating, Bedstraw [2, 8]: 0
- Plant response rating, Bedstraw [2, 9]: 0
- Bedstraw plant response rating [2, 10]: 0
- Bedstraw plant response rating [2, 11]: 0
- Bedstraw plant response rating [2, 12]: 0
- Soybean plant response rating [3, 5]: 0
- Soybean plant response rating [3, 6]: 0
- Soybean plant response rating [3, 7]: 0
- Plant response rating, Soybean [3, 8]: 0
- Plant response rating, Soybean [3, 9]: 0
- Soybean plant response rating [3, 10]: 0
- Soybean plant response rating [3, 11]: 0
- Soybean plant response rating [3, 12]: 0
- Barnyardgrass plant response rating [4, 5]: 0
- Barnyardgrass plant response rating [4, 13]: 0
- Barnyardgrass plant response rating [4, 14]: 0
- Barnyardgrass plant response rating [4, 15]: 0

SMILES: Cc1ccccc1Cn1c(=O)on(C(=O)N(C)c2ccccc2)c1=O [Compound 85]
- Wild oats plant response rating [1, 5]: 0
- Wild oats plant response rating [1, 6]: 0
- Wild oats plant response rating [1, 7]: 0
- Plant response rating, Wild oats [1, 8]: 0
- Plant response rating, Wild oats [1, 9]: 0
- Wild oats plant response rating [1, 10]: 0
- Wild oats plant response rating [1, 11]: 0
- Wild oats plant response rating [1, 12]: 0
- Bedstraw plant response rating [2, 5]: 0
- Bedstraw plant response rating [2, 6]: 0
- Bedstraw plant response rating [2, 7]: 0
- Plant response rating, Bedstraw [2, 8]: 0
- Plant response rating, Bedstraw [2, 9]: 0
- Bedstraw plant response rating [2, 10]: 0
- Bedstraw plant response rating [2, 11]: 0
- Bedstraw plant response rating [2, 12]: 0
- Soybean plant response rating [3, 5]: 0
- Soybean plant response rating [3, 6]: 0
- Soybean plant response rating [3, 7]: 0
- Plant response rating, Soybean [3, 8]: 0
- Plant response rating, Soybean [3, 9]: 0
- Soybean plant response rating [3, 10]: 0
- Soybean plant response rating [3, 11]: 0
- Soybean plant response rating [3, 12]: 0
- Barnyardgrass plant response rating [4, 5]: 0
- Barnyardgrass plant response rating [4, 13]: 0
- Barnyardgrass plant response rating [4, 14]: 0
- Barnyardgrass plant response rating [4, 15]: 0

SMILES: CC(C)N(C(=O)n1oc(=O)n(Cc2ccccc2)c1=O)c1ccc(Cl)cc1 [Compound 106]
- Wild oats plant response rating [1, 16]: 0
- Wild oats plant response rating [1, 7]: 0
- Wild oats plant response rating (0 to 10 scale) [1, 17]: 0
- Plant response rating, Wild oats [1, 9]: 0
- Wild oats plant response rating [1, 18]: 0
- Wild oats plant response rating [1, 19]: 0
- Plant response rating, Wild oats [1, 20]: 0
- Wild oats plant response rating [1, 12]: 0
- Bedstraw plant response rating [2, 5]: 0
- Bedstraw plant response rating [2, 6]: 3
- Bedstraw plant response rating [2, 7]: 0
- Plant response rating, Bedstraw [2, 8]: 0
- Plant response rating, Bedstraw [2, 9]: 3
- Bedstraw plant response rating [2, 18]: 4
- Bedstraw plant response rating [2, 11]: 0
- Bedstraw plant response rating [2, 12]: 7
- Soybean plant response rating [3, 16]: 0
- Soybean plant response rating [3, 7]: 0
- Plant response rating, Soybean [3, 8]: 0
- Plant response rating, Soybean [3, 9]: 0
- Soybean plant response rating [3, 18]: 0
- Soybean plant response rating [3, 19]: 0
- Plant response rating, Soybean [3, 20]: 1
- Soybean plant response rating [3, 12]: 1
- Barnyardgrass plant response rating [4, 5]: 0
- Barnyardgrass plant response rating [4, 13]: 0
- Barnyardgrass plant response rating [4, 14]: 0
- Barnyardgrass plant response rating [4, 15]: 0

SMILES: C=CCn1c(=O)on(C(=O)N(c2ccc(F)cc2F)C2CC2)c1=O [Compound 127]
- Wild oats plant response rating [1, 16]: 0
- Wild oats plant response rating [1, 21]: 0
- Wild oats plant response rating [1, 7]: 0
- Wild oats plant response rating (0 to 10 scale) [1, 17]: 0
- Wild oats plant response rating [1, 22]: 0
- Wild oats plant response rating [1, 18]: 0
- Wild oats plant response rating [1, 19]: 0
- Plant response rating, Wild oats [1, 20]: 0
- Wild oats plant response rating [1, 23]: 0
- Plant response rating, Wild oats [1, 24]: 8
- Bedstraw plant response rating [2, 5]: 0
- Bedstraw plant response rating [2, 16]: 0
- Bedstraw plant response rating [2, 21]: 0
- Bedstraw plant response rating [2, 7]: 0
- Bedstraw plant response rating (0 to 10 scale) [2, 17]: 0
- Bedstraw plant response rating [2, 22]: 0
- Bedstraw plant response rating [2, 18]: 0
- Plant response rating, Bedstraw [2, 20]: 0
- Bedstraw plant response rating [2, 12]: 0
- Plant response rating, Bedstraw [2, 24]: 0
- Soybean plant response rating [3, 16]: 0
- Soybean plant response rating [3, 21]: 0
- Soybean plant response rating [3, 7]: 0
- Soybean plant response rating (0 to 10 scale) [3, 17]: 0
- Soybean plant response rating [3, 22]: 0
- Soybean plant response rating [3, 18]: 0
- Soybean plant response rating [3, 19]: 0
- Plant response rating, Soybean [3, 20]: 0
- Soybean plant response rating [3, 23]: 0
- Plant response rating, Soybean [3, 24]: 0
- Barnyardgrass plant response rating [4, 25]: 0
- Barnyardgrass plant response rating [4, 5]: 0
- Plant response rating, Barnyardgrass [4, 26]: 0
- Barnyardgrass plant response rating [4, 14]: 0

SMILES: CC(C)N(C(=O)n1oc(=O)n(Cc2ccccc2Cl)c1=O)C1=CCCCC1 [Compound 145]
- Wild oats plant response rating [1, 16]: 0
- Wild oats plant response rating [1, 7]: 0
- Wild oats plant response rating (0 to 10 scale) [1, 17]: 0
- Wild oats plant response rating [1, 22]: 0
- Wild oats plant response rating [1, 18]: 3
- Wild oats plant response rating [1, 19]: 0
- Plant response rating, Wild oats [1, 20]: 0
- Wild oats plant response rating [1, 23]: 2
- Bedstraw plant response rating [2, 16]: 2
- Bedstraw plant response rating [2, 7]: 0
- Bedstraw plant response rating (0 to 10 scale) [2, 17]: 0
- Bedstraw plant response rating [2, 22]: 0
- Bedstraw plant response rating [2, 18]: 4
- Bedstraw plant response rating [2, 19]: 0
- Plant response rating, Bedstraw [2, 20]: 3
- Bedstraw plant response rating [2, 12]: 5
- Soybean plant response rating [3, 16]: 3
- Soybean plant response rating [3, 7]: 0
- Soybean plant response rating (0 to 10 scale) [3, 17]: 0
- Soybean plant response rating [3, 22]: 0
- Soybean plant response rating [3, 18]: 0
- Soybean plant response rating [3, 19]: 3
- Plant response rating, Soybean [3, 20]: 4
- Soybean plant response rating [3, 23]: 5
- Barnyardgrass plant response rating [4, 25]: 6
- Barnyardgrass plant response rating ([4]; Rate 62 g/ha, Postemergence section, flood test species, scale of 0 to 10 where 0 is no effect and 10 is complete control): 0
- Plant response rating, Barnyardgrass [4, 26]: 7
- Barnyardgrass plant response rating [4, 14]: 9
